# Source: paper PMC6100082, “Pyridine-Ureas as Potential Anticancer Agents: Synthesis and In Vitro Biological Evaluation” (Molecules : A Journal of Synthetic Chemistry and Natural …, 2018)
# What was measured:
# [1] = test system: COLO 205; assay: NCI one-dose SRB assay (Colon Cancer); format: cell-based, human; conditions: for Growth Percent: COLO 205, 1.00E-5 Molar; for inhibition at 10 µM: Homo sapiens, read-out: Percentage growth inhibition (GI%)
# Method in brief: (§1)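 Human cancer cells are exposed for 48 h to one dose (10^−5 M) of test compound, then cell growth is measured by SRB protein assay. Data appear as GI%.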
# [2] = test system: KM12; assay: NCI one-dose SRB assay (Colon Cancer); format: cell-based, human; conditions: for Growth Percent: KM12, 1.00E-5 Molar; for inhibition at 10 µM: Homo sapiens, read-out: Percentage growth inhibition (GI%)
# Method in brief: as §1
# [3] = test system: SW-620; assay: NCI one-dose SRB assay (Colon Cancer); format: cell-based, human; conditions: for Growth Percent: SW-620, 1.00E-5 Molar; for inhibition at 10 µM: Homo sapiens, read-out: Percentage growth inhibition (GI%)
# Method in brief: as §1
# [4] = test system: IGROV1; assay: NCI one-dose SRB assay (Ovarian Cancer); format: cell-based, human; conditions: for Growth Percent: IGROV1, 1.00E-5 Molar; for inhibition at 10 µM: Homo sapiens, IGROV-1, read-out: Percentage growth inhibition (GI%)
# Description: (§2) The structures of all the newly prepared pyridine-ureas 8a–n were submitted to the National Cancer Institute (NCI) Developmental Therapeutic Program. Eight compounds 8b, 8d, 8e, 8i, 8j and 8l–n were selected to be examined for their in vitro growth inhibitory activity. The anticancer assays were carried out according to the protocol of the Drug Evaluation Branch, NCI, Bethesda. The selected pyridine-ureas were tested at one dose primary anticancer assay against a panel of approximately 58 cancer lines (concentration 10^−5 M). The tested human cancer cell lines emerged from nine different cancer subtypes: leukemia, colon, melanoma, ovarian, lung, CNS, renal, breast and prostate cancers. The sulforhodamine B (SRB) protein assay was adopted to estimate the cell viability and growth. The results were reported as mean-graph of the percentage growth of the treated cells, and presented as percentage growth inhibition (GI%) caused by the test compounds (Table 2).
# (§3) The anticancer assays were performed in accordance with the protocol of the Drug Evaluation Branch, NCI, Bethesda. A 48 h drug exposure protocol was used and sulforhodamine B (SRB) protein assay was applied to estimate the cell viability and growth, as reported earlier.
# [5] = test system: NCI/ADR-RES; assay: NCI one-dose SRB assay (Ovarian Cancer); format: cell-based, human; conditions: for Growth Percent: 1.00E-5 Molar; for inhibition at 10 µM: Homo sapiens, read-out: Percentage growth inhibition (GI%)
# Description: as §2, §3
# [6] = test system: OVCAR-3; assay: NCI one-dose SRB assay (Ovarian Cancer); format: cell-based, human; conditions: for Growth Percent: OVCAR-3, 1.00E-5 Molar; for inhibition at 10 µM: Homo sapiens, read-out: Percentage growth inhibition (GI%)
# Description: as §2, §3
# [7] = test system: OVCAR-4; assay: NCI one-dose SRB assay (Ovarian Cancer); format: cell-based, human; conditions: for Growth Percent: OVCAR-4, 1.00E-5 Molar; for inhibition at 10 µM: Homo sapiens, read-out: Percentage growth inhibition (GI%)
# Description: as §2, §3
# [8] = test system: OVCAR-5; assay: NCI one-dose SRB assay (Ovarian Cancer); format: cell-based, human; conditions: for Growth Percent: OVCAR-5, 1.00E-5 Molar; for inhibition at 10 µM: Homo sapiens, read-out: Percentage growth inhibition (GI%)
# Description: as §2, §3
# [9] = test system: OVCAR-8; assay: NCI one-dose SRB assay (Ovarian Cancer); format: cell-based, human; conditions: for Growth Percent: OVCAR-8, 1.00E-5 Molar; for inhibition at 10 µM: Homo sapiens, read-out: Percentage growth inhibition (GI%)
# Description: as §2, §3
# [10] = test system: SK-OV-3; assay: NCI one-dose SRB assay (Ovarian Cancer); format: cell-based, human; conditions: for Growth Percent: SK-OV-3, 1.00E-5 Molar; for inhibition at 10 µM: Homo sapiens, read-out: Percentage growth inhibition (GI%)
# Description: as §2, §3
# [11] = test system: non-tumorigenic human lung fibroblast WI-38 cell line; assay: Cytotoxic activity against non-tumorigenic cells, MTT assay; format: cell-based; conditions: WI-38, MTT
# Description: The cytotoxic activity of compounds 8b and 8e were evaluated against non-tumorigenic human lung fibroblast WI-38 cell line utilizing the MTT colorimetric assay developed by T. Mosmann (Table 3).
# MCF-7 (human breast cancer cell line) and WI-38 (human lung fibroblast cell line), were obtained from American Type Culture Collection (Manassas, VA, USA). The cells were propagated in DMEM and supplemented with 10% heat-inactivated FBS (Hyclone), 10 μg/mL of insulin (Manufacturer, Sigma, St. Louis, MO, USA), and 1% penicillin-streptomycin. MTT assay was utilized to examine the in vitro anti-proliferative activity of the newly prepared ureas following the reported procedures. […] The data presented are the mean of at least three separate experiments.
# [12] = target: VEGFR-2 (Homo sapiens, UniProt P35968); assay: VEGFR-2 inhibitory assay (Alpha Screen, anti-phosphotyrosine antibody)
# Chain of VEGFR-2 (P35968 20-1356, species assumed): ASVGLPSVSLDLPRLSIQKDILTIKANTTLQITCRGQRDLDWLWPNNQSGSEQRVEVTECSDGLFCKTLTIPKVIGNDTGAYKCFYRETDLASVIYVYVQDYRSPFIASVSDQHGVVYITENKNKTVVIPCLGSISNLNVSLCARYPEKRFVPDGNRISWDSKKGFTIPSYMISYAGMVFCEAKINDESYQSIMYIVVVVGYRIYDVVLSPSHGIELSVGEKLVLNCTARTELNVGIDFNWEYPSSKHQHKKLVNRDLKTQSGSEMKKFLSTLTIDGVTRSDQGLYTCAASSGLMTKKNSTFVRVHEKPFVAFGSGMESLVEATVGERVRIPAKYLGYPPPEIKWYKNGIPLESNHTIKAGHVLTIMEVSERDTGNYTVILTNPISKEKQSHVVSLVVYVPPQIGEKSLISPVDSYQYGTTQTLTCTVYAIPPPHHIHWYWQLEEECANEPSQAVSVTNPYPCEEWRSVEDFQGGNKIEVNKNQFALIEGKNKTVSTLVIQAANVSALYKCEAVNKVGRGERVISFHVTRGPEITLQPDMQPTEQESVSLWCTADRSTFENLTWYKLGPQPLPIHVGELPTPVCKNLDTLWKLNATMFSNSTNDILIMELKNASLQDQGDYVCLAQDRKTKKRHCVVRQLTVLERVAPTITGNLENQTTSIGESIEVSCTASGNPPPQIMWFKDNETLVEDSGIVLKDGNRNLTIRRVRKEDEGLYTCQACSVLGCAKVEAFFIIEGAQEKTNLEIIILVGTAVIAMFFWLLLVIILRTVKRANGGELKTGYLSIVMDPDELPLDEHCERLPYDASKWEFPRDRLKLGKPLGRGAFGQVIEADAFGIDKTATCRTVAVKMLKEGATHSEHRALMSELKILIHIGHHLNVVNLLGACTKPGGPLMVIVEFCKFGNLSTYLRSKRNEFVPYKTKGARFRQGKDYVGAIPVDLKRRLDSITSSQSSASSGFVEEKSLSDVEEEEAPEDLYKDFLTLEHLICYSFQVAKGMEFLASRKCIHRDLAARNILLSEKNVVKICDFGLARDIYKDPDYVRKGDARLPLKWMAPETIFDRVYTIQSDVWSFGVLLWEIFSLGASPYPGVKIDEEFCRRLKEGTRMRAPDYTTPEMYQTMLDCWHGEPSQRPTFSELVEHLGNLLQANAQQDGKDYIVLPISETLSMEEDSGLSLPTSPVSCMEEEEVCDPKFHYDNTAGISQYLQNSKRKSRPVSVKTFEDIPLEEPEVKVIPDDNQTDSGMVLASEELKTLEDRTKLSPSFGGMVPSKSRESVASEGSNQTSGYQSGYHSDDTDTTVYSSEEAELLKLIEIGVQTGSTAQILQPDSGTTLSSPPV
Compound,Growth Percent [1] [%],Growth Percent [2] [%],Growth Percent [3] [%],Growth Percent [4] [%],Growth Percent [5] [%],Growth Percent [6] [%],Growth Percent [7] [%],Growth Percent [8] [%],Growth Percent [9] [%],Growth Percent [10] [%],"inhibition at 10 µM ([1]; COLO 205, 10 μM) [%]","inhibition at 10 µM ([2]; KM12, 10 μM) [%]","inhibition at 10 µM ([3]; SW-620, 10 μM) [%]","inhibition at 10 µM ([4]; IGROV1, 10 μM) [%]",inhibition at 10 µM ([5]; 10 μM) [%],"inhibition at 10 µM ([6]; OVCAR-3, 10 μM) [%]","inhibition at 10 µM ([7]; OVCAR-4, 10 μM) [%]","inhibition at 10 µM ([8]; OVCAR-5, 10 μM) [%]","inhibition at 10 µM ([9]; OVCAR-8, 10 μM) [%]","inhibition at 10 µM ([10]; SK-OV-3, 10 μM) [%]",also measured
"1-(4-Chloro-4-(trifluoromethyl)cyclohexa-2,5-dien-1-yl)-3-(6-(3,4-dimethoxyphenyl)-2-methylpyridin-3-yl)urea [Compound 8l]",93.52,70.44,90.92,83.06,69.67,57.00,75.13,85.15,81.32,84.22,–,–,–,–,–,–,–,–,–,–,"Percentage growth inhibition (GI%) ([1]; COLO 205, 10 μM): - (Only GI% higher than 10% are shown); Percentage growth inhibition (GI%) ([2]; KM12, 10 μM): 30%; Percentage growth inhibition (GI%) ([3]; SW-620, 10 μM): 10%; Percentage growth inhibition (GI%) ([4]; IGROV1, 10 μM): 17%; Percentage growth inhibition (GI%) ([5]; 10 μM): 31%; Percentage growth inhibition (GI%) ([6]; OVCAR-3, 10 μM): 43%; Percentage growth inhibition (GI%) ([7]; OVCAR-4, 10 μM): 25%; Percentage growth inhibition (GI%) ([8]; OVCAR-5, 10 μM): 15%; Percentage growth inhibition (GI%) ([9]; OVCAR-8, 10 μM): 19%; Percentage growth inhibition (GI%) ([10]; SK-OV-3, 10 μM): 16%"
"COc1ccc(-c2ccc(NC(=O)Nc3cccc(Cl)c3)c(C)n2)cc1OC [Compound 8j, 1-(3-Chlorophenyl)-3-(6-(3,4-dimethoxyphenyl)-2-methylpyridin-3-yl) Urea]",93.06,78.93,98.24,100.28,84.81,90.37,91.75,88.21,90.16,83.62,< 10,22,< 10,< 10,16,10,< 10,12,10,17,–
"COc1ccc(-c2ccc(NC(=O)Nc3ccc(Cl)c(C(F)(F)F)c3)c(C)n2)cc1 [Compound 8e, 1-(4-Chloro-3-(trifluoromethyl)phenyl)-3-(6-(4-methoxyphenyl)-2-methylpyridin-3-yl)urea]",80.09,37.36,67.04,52.86,49.78,27.65,45.11,89.11,57.40,68.11,20,63,33,48,51,73,55,11,43,32,IC50 [11]: 83.1 ± 5.21 µM; IC50 [12]: 3.93 ± 0.73 µM
"COc1ccc(-c2ccc(NC(=O)Nc3cccc(C(F)(F)F)c3)c(C)n2)cc1OC [Compound 8i, 1-(6-(3,4-Dimethoxyphenyl)-2-methylpyridin-3-yl)-3-(3-(trifluoromethyl)phenyl) Urea]",88.09,66.00,91.19,91.46,66.87,69.16,59.07,94.03,81.32,101.37,12,34,< 10,< 10,34,31,41,< 10,19,< 10,–
"COc1ccc(-c2ccc(NC(=O)Nc3ccc(Cl)cc3)c(C)n2)cc1 [Compound 8d, 1-(4-Chlorophenyl)-3-(6-(4-methoxyphenyl)-2-methylpyridin-3-yl) Urea]",102.39,93.09,77.06,83.85,92.03,101.66,74.67,93.01,93.26,82.66,< 10,< 10,23,17,< 10,< 10,26,< 10,< 10,18,–
"COc1cccc(NC(=O)Nc2ccc(-c3ccc(OC)c(OC)c3)nc2C)c1 [Compound 8m, 1-(6-(3,4-Dimethoxyphenyl)-2-methylpyridin-3-yl)-3-(3-methoxyphenyl) Urea]",119.56,96.43,101.68,112.08,92.25,101.69,126.33,104.54,102.37,99.49,< 10,< 10,< 10,< 10,< 10,< 10,< 10,< 10,< 10,< 10,–
"COc1ccc(-c2ccc(NC(=O)Nc3cccc(C(F)(F)F)c3)c(C)n2)cc1 [Compound 8b, 1-(6-(4-Methoxyphenyl)-2-methylpyridin-3-yl)-3-(3-(trifluoromethyl)phenyl) Urea]",84.52,45.61,81.01,91.33,53.15,41.93,42.94,83.05,61.89,82.08,16,55,19,< 10,47,59,58,17,39,18,IC50 [11]: 91.5 ± 4.53 µM; IC50 [12]: 5 ± 1.91 µM
"COc1ccc(NC(=O)Nc2ccc(-c3ccc(OC)c(OC)c3)nc2C)cc1 [Compound 8n, 1-(6-(3,4-Dimethoxyphenyl)-2-methylpyridin-3-yl)-3-(4-methoxyphenyl) Urea]",91.95,45.29,64.84,77.14,84.96,102.08,29.55,98.04,47.38,74.76,< 10,55,36,23,16,< 10,71,< 10,53,26,–
